Patent publication US7141560B2, “Alanine 2,6-dialkoxyphenyl ester derivatives as hypnotics” (Akzo Nobel N.V., priority 2001, dated 2006)

System: mice
Assay: Hypnotic activity: loss of righting reflex after intravenous injection in mice
Type: in vivo
Details: intravenous injection over 10 seconds, dose causing loss of righting reflex for minimum 30 seconds in 50% of treated mice; for ED50: Mus musculus, read-out: HD50 (hypnotic dose50)
Method: The hypnotic potency of the alanine 2,6-dialkoxyphenyl ester derivatives of the invention was determined upon their intravenous administration in mice. The dose required to cause a loss of righting reflex for a minimum period of 30 seconds in 50% of treated mice after intravenous injection over 10 seconds was determined. This dose is termed the HD50 (hypnotic dose50) and is expressed in μmol.kg^−1. These in vivo experiments were carried out as described in detail by Anderson et al., J. Med. Chem. 1997, 40, 1668–1681.

SMILES	HD50 (hypnotic dose50)	ED50
COCCN(CCOC)C(CC(=O)OC)C(=O)Oc1c(OC)cc(C)cc1OC (stereo not drawn) [Example 24b, Butanedioic, 2-[N-bis(2-methoxyethyl)amino]-, 1-(2,6-dimethoxy-4-methylphenyl)ester, 4-methyl ester]	48 µmol/kg	–
CCOCCC(C(=O)Oc1c(OC)cccc1OC)N1CCCCCC1 (stereo not drawn) [Example 10q, 4-Ethoxy-2-[1-hexahydroazepinyl]butyric acid, 2,6-dimethoxyphenyl ester]	–	25 µmol/kg
COCCC(C(=O)Oc1c(OC)cc(C)cc1OC)N1CCCCCC1 (stereo not drawn) [Example 10n, 2-[1-(Hexahydroazepinyl)]-4-methoxybutyric acid, 2,6-dimethoxy-4-methylphenyl ester]	38 µmol/kg	–
COc1cccc(OC)c1OC(=O)C(CN1CCOCC1)N1CCOC[C@H]1C(C)C (stereo partly drawn) [Example 19h]	21 µmol/kg	–
COC(=O)CC(C(=O)Oc1c(OC)cc(C)cc1OC)N1CCCCCC1 (stereo not drawn) [Example 30b, Butanedioic, 2-(1-hexahydroazepinyl)-, 1-(2,6-dimethoxy-4-methyl-phenyl)ester, 4-methyl ester]	26 µmol/kg	–
COc1cc(C)cc(OC)c1OC(=O)C(CCSC)N1CCOCC1 (stereo not drawn) [Example 39a, Butanoic acid, 4-(methylthio)-2-(4-morpholinyl)-, 1-(2,6-dimethoxy-4-methylphenyl)ester]	35 µmol/kg	–
COCCC(C(=O)Oc1c(OC)cccc1OC)N1CCCCC1 (stereo not drawn) [Example 10f, 4-Methoxy-2-[1-piperidinyl]butyric acid, 2,6-dimethoxyphenyl ester]	–	22 µmol/kg
COCCCN(CCCOC)C(COC)C(=O)Oc1c(OC)cccc1OC (stereo not drawn) [Example 3f, 2-[N-Bis(3-methoxypropyl)amino]-3-methoxypropionic acid, 2,6-dimethoxyphenyl ester]	46 µmol/kg	–
CCOc1cccc(OCC)c1OC(=O)C(CN1CCOCC1)N1CCOCC1 (stereo not drawn) [Example 20b, Propanoic acid, 2,3-di(4-morpholinyl), 2,6-diethoxyphenyl ester]	24 µmol/kg	–
